# According to patent US12440497B2, “Compositions and methods for enhancing Wnt signaling for treating cancer” (Massachusetts Institute of Technology, priority 2021, dated 2025):
# “And” between values parts separate entries of the source, which are not always exact repeats. Equal values may be shown once. “Also recorded” adds a separate entry of the source. Read-outs that look alike come from different tables or passages of the source.
# B1: RSPO1: concentrated RSPO1, a Wnt agonist (protein, UniProt Q2MKA7 21-263, looked up)
# R-spondin-1: SRGIKGKRQRRISAEGSQACAKGCELCSEVNGCLKCSPKLFILLERNDIRQVGVCLPSCPPGYFDARNPDMNKCIKCKIEHCEACFSHNFCTKCKEGLYLHKGRCYPACPEGSSAANGTMECSSPAQCEMSEWSPWGPCSKKQQLCGFRRGSEERTRRVLHAPVGDHAACSDTKETRRCTVRRVPCPEGQKRRKGGQGRRENANRNLARKESKEAGAGSRRRKGQQQQQQQGTVGPLTSAGPA
# Experiments:
# [1] = Body weight of treated mice; assay type: in vivo; conditions: high dose, in one week
# Method: In humans, the chemotherapy 5-Fluorouracil is a backbone of colon cancer therapy, however, has significant toxic side effects. Mice tolerate a higher dose of 5-Fluorouracil compared to humans on a per weight per day basis. When a high dose of 5-Fluorouracil is administered to mice, they lose 20% of their total weight in one week (FIG. 12A). […] This is in direct contrast to the improved inhibition of tumor burden and treatment effect identified by using the nanoparticle formulation of LY2090314 (FIGS. 5A-5C).
# wildtype colon organoids = assay: Wildtype colon organoid growth, resazurin viability assay; assay type: cell-based, Mouse and human; conditions: for ranking by on-target vs off-target function in organoids: order: LY2090314, SAR502250, A-1070722, CHIR 99021; for growth of wildtype colon organoids: resazurin assay
# Method: (§1) Mouse and human organoids were grown in standard organoid culture systems using MATRIGEL® and Advanced DMEM/F12 media with 5% fetal bovine serum, and GLUTAMAX® supplementation. Dose responses of the labeled drugs were applied to the organoid cultures and resazurin viability assays were performed after 4 days of culture. Relative growth is assessed by conversion of resazurin to resorufin and is shown on the y axis.
# To further generalize the approach using different GSK3 inhibitors, two other compounds were identified which via GSK3 inhibition, induce Wnt responses in colon organoids. […] Using primary wildtype colon crypts, the capacity of SAR502250 to promote wildtype organoid growth was evaluated using a resazurin metabolic based assay.
# Wnt signaling = assay: TOP-TdTomato Wnt reporter in wildtype organoids; assay type: cell-based
# [2] = tested on: organoids that harbor an APC mutation; assay: Growth of APC-mutant colon cancer organoid genotypes, resazurin assay; assay type: cell-based; conditions: at all concentrations; also with added KRAS, p53, SMAD4 mutations
# Method: as §1
# Same as FIG. 1, but the genotype of the organoids tested vary instead of being wildtype, they contain the mutations as indicated in the figure description.
# [3] = tested on: Human colon cancers (colon tumor organoid lines); assay: Human colon tumor organoid dose response, resazurin; assay type: cell-based; conditions: every human colon cancer, 4 days of culture
# Method: Human colon cancers were collected from the operating room at MGH. Colon tumor organoids lines were generated from the resections and maintained in standard colon organoid culture conditions. Dose responses of LY2090314 were applied to the various human colon cancers and resazurin cell number counts were performed after 4 days of culture.
# [4] = tested on: colon cancer organoids (AKPVT); assay: AKPVT colon cancer organoid growth, resazurin based assay; assay type: cell-based, mouse; conditions: for inhibition of AKPVT colon cancer organoid growth: single agent
# Method: FIG. 14 is a two-dimensional dose response of RSPO1 by LY2090314 on inhibiting colon cancer organoid growth (AKPVT), assessed by resazurin based assay.
# Viability decrease was assessed using a resazurin based metabolic/proliferation assay.
# colon cancer organoids = assay: LY2090314 together with 5-FU on colon cancer organoids; assay type: cell-based; conditions: combination with 5-FU
# Description: LY2090314 was used together with 5-FU on colon cancer organoids. […] The cell killing or tumor inhibition effect of LY2090314 is additive with 5-FU. Thus, LY2090314 can be added to many of the existing chemotherapy regimens for colon cancer with improved outcomes.
# [5] = in DMSO; cited from earlier work
# β-catenin = conditions: 20 nM; cited from earlier work
# GSK3 = conditions: cited from earlier work
# melanoma cell lines = conditions: cited from earlier work
# [6] = rats; cited from earlier work
# [7] = dogs; cited from earlier work
# [8] = humans; cited from earlier work
# [9] = cited from earlier work
# A375 xenograft = conditions: 25 mg/kg Q3D, i.v., cited from earlier work
molecule,measurement,setting,value
O=c1[nH]cc(F)c(=O)[nH]1 [5-Fluorouracil],loss of total weight,[1],20%
COc1ccc2c(NC(=O)Nc3cccc(C(F)(F)F)n3)ccnc2c1 [A-1070722],ranking by on-target vs off-target function in organoids,wildtype colon organoids,best drugs in decreasing order of efficacy
CN1CCN(S(=O)(=O)c2ccc(-c3cnc(N)c(C(=O)Nc4cccnc4)n3)cc2)CC1 [AZD2858],growth of wildtype colon organoids,wildtype colon organoids,capacity to grow normal wildtype organoids; also recorded: clear low nanomolar capacity to support normal colon organoid growth
same,"Wnt response, TOP-TdTomato reporter activity",Wnt signaling,promote a Wnt response; also recorded: confirmed to be on target Wnt signaling
Cc1c[nH]c(-c2cnc(NCCNc3ccc(C#N)cn3)nc2-c2ccc(Cl)cc2Cl)n1 [CHIR 99021],ranking by on-target vs off-target function in organoids,wildtype colon organoids,best drugs in decreasing order of efficacy
O=C1NC(=O)C(c2cnc3ccccn23)=C1c1cn2c3c(cc(F)cc13)CN(C(=O)N1CCCCC1)CC2 [LY2090314],ranking by on-target vs off-target function in organoids,wildtype colon organoids,best drugs in decreasing order of efficacy
same,growth of wildtype colon organoids,wildtype colon organoids,potently permits the growth; also recorded: general improvement in growth; also recorded: more potent than SAR502250
same,growth of organoids that harbor an APC mutation,[2],inhibited the growth
same,susceptibility of human colon cancer organoids,[3],showed susceptibility
same,combination effect with a Wnt agonist on tumor organoid growth,[4]; LY2090314 combined with RSPO1,synergistic effect
same,cell killing or tumor inhibition effect together with 5-FU,colon cancer organoids,additive
same,solubility,[5],31 mg/mL and 60.48 mM
same,induction of Axin2,β-catenin,induction of Axin2
same,stabilization of β-catenin total protein,β-catenin,time-dependent stabilization
same,fold selectivity relative to a large panel of kinases,GSK3,highly selective towards GSK3
same,activity in cell lines resistant to PLX4032,melanoma cell lines,remains active
same,apoptotic cell death,melanoma cell lines; irrespective of BRAF mutation status,potently induces apoptotic cell death
same,half-life,[6],approximately 0.4 hours
same,half-life,[7],~0.7 h
same,half-life,[8],1.8 to 3.4 h
same,clearance,[9]; approximating hepatic blood flow,high clearance
same,volume of distribution,[9]; in vivo,1 to 2 L/kg
same,Axin2 gene expression in vivo,A375 xenograft,elevates Axin2 gene expression
same,single agent activity in the A375 xenograft model,A375 xenograft,demonstrates single agent activity
same,effect on efficacy of DTIC,A375 xenograft; with DTIC,enhances the efficacy of DTIC
Cn1c(N2CCO[C@@H](c3ccc(F)cc3)C2)nc(-c2ccncn2)cc1=O [SAR502250],ranking by on-target vs off-target function in organoids,wildtype colon organoids,best drugs in decreasing order of efficacy
same,growth of wildtype colon organoids,wildtype colon organoids,capacity to grow normal wildtype organoids; also recorded: can independently permit wildtype organoid growth
same,inhibition of AKPVT colon cancer organoid growth,[4],more modest inhibition than LY2090314
same,"Wnt response, TOP-TdTomato reporter activity",Wnt signaling,promote a Wnt response
B1,reduction in viability of colon cancer organoids,[4]; RSPO1 in the presence of low nanomolar LY2090314,more than 40%
same,inhibition of AKPVT colon cancer organoid growth,[4],modest effect
